Activity calls are given as the source filed them. Peptide text beside a SMILES is read from it.
Columns and labels:
[1] = target: T1, SH2 domain-containing protein 1A (Homo sapiens) (UniProt O60880); assay: Inhibition of recombinant 6-His-tagged SLAM associated protein SH2 domain (unknown origin) expressed in Escherichia coli BL21(DE3) binding to biotinyl-KKSLTIpYAQVQK-NH2 attached to NeutrAvidin-coated plates using p-nitrophenyl phosphate as substrate after 1 hr in presence of calf intestine phosphatase
T1 sequence (whole entry): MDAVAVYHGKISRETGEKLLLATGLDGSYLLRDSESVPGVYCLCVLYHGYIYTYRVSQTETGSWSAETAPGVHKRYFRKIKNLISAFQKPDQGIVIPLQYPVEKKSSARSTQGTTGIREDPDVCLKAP

[2] = target: T1, SH2 domain-containing protein 1A (Homo sapiens); assay: (§1) Inhibition of recombinant 6-His-tagged SLAM associated protein SH2 domain (unknown origin) expressed in Escherichia coli BL21(DE3) binding to biotinyl-KKSLTIpYAQVQK-NH2 attached to NeutrAvidin-coated plates using p-nitrophenyl phosphate as substrate after 1 hr
[3] = target: T1, SH2 domain-containing protein 1A (Homo sapiens); assay: Inhibition of recombinant 6-His-tagged SLAM associated protein SH2 domain (unknown origin) expressed in Escherichia coli BL21(DE3) binding to biotinyl-KKSLTIpYAQVQK-NH2 attached to NeutrAvidin-coated plates using p-nitrophenyl phosphate as substrate up to 1 uM after 1 hr
[4] = target: T2, SH2 domain-containing protein 1A (Homo sapiens, UniProt O60880); assay: as §1
T2 sequence (O60880 whole entry): T1 sequence (whole entry)

[5] = target: T1, SH2 domain-containing protein 1A (Homo sapiens); assay: Inhibition of recombinant 6-His-tagged SLAM associated protein SH2 domain (unknown origin) expressed in Escherichia coli BL21(DE3) binding to biotinyl-KKSLTIpYAQVQK-NH2 attached to NeutrAvidin-coated plates using p-nitrophenyl phosphate as substrate at 100 uM after 1 hr
[6] = target: T1, SH2 domain-containing protein 1A (Homo sapiens); assay: Inhibition of recombinant 6-His-tagged SLAM associated protein SH2 domain (unknown origin) expressed in Escherichia coli BL21(DE3) binding to biotinyl-KKSLTIpYAQVQK-NH2 attached to NeutrAvidin-coated plates using p-nitrophenyl phosphate as substrate at 10 uM after 1 hr relative to control

| Structure (SMILES) | inhibition [2] | IC50 [4] [µM] | inhibition [5] | fold change (FC) [6] | inhibition [1] | inhibition [3] |
| --- | --- | --- | --- | --- | --- | --- |
| CC[C@H](C)[C@H](NC(=O)[C@@H](NC(=O)[C@H](CC(C)C)NC(=O)[C@H](CO)NC(=O)[C@H](CCCCN)NC(=O)[C@H](CCCCN)NC(C)=O)[C@@H](C)O)C(=O)N[C@@H](Cc1ccc(OP(=O)(O)O)cc1)C(=O)N[C@@H](C)C(=O)N[C@@H](CCC(N)=O)C(=O)N[C@H](C(=O)N[C@@H](CCC(N)=O)C(=O)N[C@@H](CCCCN)C(N)=O)C(C)C (HELM PEPTIDE1{[ac].K.K.S.L.T.I.[O=C([C@H](Cc1ccc(OP(=O)(O)O)cc1)N[*:1])[*:2]].A.Q.V.Q.K.[am]}$$$$V2.0) | Dose-dependent effect |  |  |  | inactive |  |
| CC(=O)N[C@@H](CC(=O)O)C(=O)N[C@@H](CC(=O)O)C(=O)N1CCC[C@H]1C(=O)N[C@@H](CO)C(=O)N[C@@H](Cc1ccc(OP(=O)(O)O)cc1)C(=O)N[C@H](C(=O)N[C@@H](CC(N)=O)C(=O)N[C@H](C(=O)N[C@@H](CCC(N)=O)C(N)=O)C(C)C)C(C)C (HELM PEPTIDE1{[ac].D.D.P.S.[O=C([C@H](Cc1ccc(OP(=O)(O)O)cc1)N[*:1])[*:2]].V.N.V.Q.[am]}$$$$V2.0) |  |  |  |  |  | inactive |
| NC(=O)[C@H](CC(=O)O)NC(=O)[C@@H](N)Cc1ccc2c(c1)COP(=O)(O)O2 | inactive |  |  |  |  |  |
| COC(=O)[C@H](Cc1ccc2c(c1)COP(=O)(O)O2)NC(=O)[C@H](Cc1c[nH]c2ccccc12)NC(=O)OCC1c2ccccc2-c2ccccc21 |  |  | Active | 0.94 |  |  |
| NC(=O)[C@H](Cc1ccccc1)NC(=O)[C@H](Cc1ccc2c(c1)COP(=O)(O)O2)NC(=O)OCC1c2ccccc2-c2ccccc21 | Dose-dependent effect | 35 | Active | 0.73 |  |  |
| NC(=O)[C@@H]1CCCN1C(=O)[C@H](Cc1ccc2c(c1)COP(=O)(O)O2)NC(=O)OCC1c2ccccc2-c2ccccc21 |  |  | Active | 1.05 |  |  |

Further lines, with some results ahead:

| inhibition [2] | IC50 [4] [µM] | inhibition [5] | fold change (FC) [6] | Structure (SMILES) | inhibition [1] | inhibition [3] |
| --- | --- | --- | --- | --- | --- | --- |
| Dose-dependent effect | 17 | Active | 0.55 | NC(=O)[C@H](CC(=O)O)NC(=O)[C@H](Cc1ccc2c(c1)COP(=O)(O)O2)NC(=O)OCC1c2ccccc2-c2ccccc21 |  |  |
| Dose-dependent effect | 34 | Active | 0.7 | CC(C)(C)OC(=O)NCCCC[C@H](NC(=O)[C@H](Cc1ccc2c(c1)COP(=O)(O)O2)NC(=O)OCC1c2ccccc2-c2ccccc21)C(N)=O |  |  |
|  |  | Active | 1.29 | NC(=O)C[C@H](NC(=O)[C@H](Cc1ccc2c(c1)COP(=O)(O)O2)NC(=O)OCC1c2ccccc2-c2ccccc21)C(N)=O |  |  |
|  |  | Active | 1.47 | CC(C)(C)OC(=O)CC[C@H](NC(=O)[C@H](Cc1ccc2c(c1)COP(=O)(O)O2)NC(=O)OCC1c2ccccc2-c2ccccc21)C(N)=O |  |  |
|  |  | Active | 0.85 | COC(=O)[C@H](Cc1ccc2c(c1)COP(=O)(O)O2)NC(=O)[C@H](COC(C)(C)C)NC(=O)OCC1c2ccccc2-c2ccccc21 |  |  |
|  |  | Active | 0.9 | COC(=O)[C@H](Cc1ccc2c(c1)COP(=O)(O)O2)NC(=O)[C@H](CC(=O)OC(C)(C)C)NC(=O)OCC1c2ccccc2-c2ccccc21 |  |  |
|  |  | Active | 0.85 | COC(=O)[C@H](Cc1ccc2c(c1)COP(=O)(O)O2)NC(=O)[C@H](CCCCNC(=O)OC(C)(C)C)NC(=O)OCC1c2ccccc2-c2ccccc21 |  |  |
|  |  | Active | 0.91 | COC(=O)[C@H](Cc1ccc2c(c1)COP(=O)(O)O2)NC(=O)[C@H](CCCNC(=N)N)NC(=O)OCC1c2ccccc2-c2ccccc21 |  |  |
